# “And” between values parts separate entries of the source, which are not always exact repeats. Equal values may be shown once. Read-outs that look alike come from different tables or passages of the source.
# Assays:
# [1] = tested on: vaccinia virus; type: cell-based; settings: against vaccinia virus; hydrochloride
# [2] = tested on: poly(dA-dT); assay: ethidium displacement assay, poly(dA-dT); settings: relative to ethidium 9.5 × 10^6 M^-1, average of repeat measurements
# [3] = tested on: HIV-1; settings: for INFECTED RESPONSE % of Control: Table X
# [4] = tested on: T4 lymphocytes (CEM cell line); assay: NCI anti-HIV screen, toxicity control in uninfected cells; type: cell-based; settings: Table X
# [5] = biological target: Moloney Leukemia Virus reverse transcriptase (Moloney murine leukemia virus, UniProt P03355); assay: inhibition of MLV associated reverse transcriptase activity; settings: 50% inhibitory dose after 120 min incubation
# [6] = tested on: HBV; assay: inhibition of HBV DNA replication in 2.2.15 cell cultures; type: cell-based; settings: for INT[…] DNA MONO. / INT[…] DNA RI: 24 hours following the 9th day of treatment; for INT[…] DNA MONO. / INT[…] DNA RI / HBV VIRION DNA DAY 0 / HBV VIRION DNA DAY 6 / HBV VIRION DNA DAY 9: single well
# [7] = tested on: 2.2.15 cells; assay: toxicity analysis, neutral red dye uptake in 2.2.15 cells; settings: triplicate, ± standard deviation
# [8] = tested on: SC-1 cells; assay: toxicity TD50 reported with the anti-MLV test; settings: Table IV
# [9] = tested on: Moloney murine leukemia virus (MLV); assay: anti-Moloney murine leukemia virus (MLV) plaque test; type: cell-based; settings: anti-MLV plaque count
# [10] = tested on: HBV; settings: 9 μM; relative to average levels in untreated cells; typically observed (Korba and Milman, 1991); cited from earlier work
molecule,measurement,setting,value
1-Methyl-4-(1-methyl-4-trimethylammoniumacetamidopyrrole-2-carboxamido)pyr role-2-carboxyamidopriopionamidine chloride hydrochloride [3(B)],minimum inhibitory concentration,[1],300 µg/mL
1-Methyl-4-(1-methyl-4-trimethylammoniumacetamidopyrrole-2-carboxamido)pyr role-2-carboxyamidopriopionamidine chloride hydrochloride [Example 3(A)],minimum inhibitory concentration,[1],20 µg/mL
"Cl.Cl.Cn1cc(NC(=O)c2cc(NC(=O)[C@@H]3CC[C@H]3C(=O)Nc3cc(C(=O)Nc4cc(C(=O)NCCC(=N)N)n(C)c4)n(C)c3)cn2C)cc1C(=O)NCCC(=N)N (relative stereo) [Compound 25b, N,N'-di[1-methyl-2-[1-methyl-2-carboxamido(3-propionamidine)-4-pyrrole]-4-pyrrolyl] trans 1,2-cyclobutaneamide dihydrochloride]",Kapp,[2],5.6e+07 M⁻¹
same,EC50,[3]; Table XI,420 nM
same,INFECTED RESPONSE % of Control,[3]; dose 2.92 × 10^-4 Molar,0.04 % of Control
same,INFECTED RESPONSE % of Control,[3]; dose 2.93 × 10^-5 Molar,110.05 % of Control
same,INFECTED RESPONSE % of Control,[3]; dose 2.93 × 10^-6 Molar,77.00 % of Control
same,INFECTED RESPONSE % of Control,[3]; dose 2.94 × 10^-7 Molar,42.92 % of Control
same,INFECTED RESPONSE % of Control,[3]; dose 9.25 × 10^-4 Molar,9.72 % of Control
same,INFECTED RESPONSE % of Control,[3]; dose 9.27 × 10^-5 Molar,90.52 % of Control
same,INFECTED RESPONSE % of Control,[3]; dose 9.29 × 10^-7 Molar,59.07 % of Control
same,INFECTED RESPONSE % of Control,[3]; dose 9.38 × 10^-6 Molar,80.26 % of Control
same,[…] % of Control,[4]; dose 2.92 × 10^-4 Molar,0.54 % of Control
same,[…] % of Control,[4]; dose 2.93 × 10^-5 Molar,174.62 % of Control
same,[…] % of Control,[4]; dose 2.93 × 10^-6 Molar,116.36 % of Control
same,[…] % of Control,[4]; dose 2.94 × 10^-7 Molar,90.95 % of Control
same,[…] % of Control,[4]; dose 9.25 × 10^-4 Molar,8.29 % of Control
same,[…] % of Control,[4]; dose 9.27 × 10^-5 Molar,101.95 % of Control
same,[…] % of Control,[4]; dose 9.29 × 10^-7 Molar,102.41 % of Control
same,[…] % of Control,[4]; dose 9.38 × 10^-6 Molar,145.18 % of Control
same,ID50 (average ± SD),[5],21.8 ± 9.2 µg/mL
"Nc1ccn([C@H]2CC[C@@H](CO)O2)c(=O)n1 [DDC, 2,3'-dideoxycytosine, reference compound]",INT[…] DNA MONO.,"[6]; 10 μM, listed as 2',3'-ddC",2.5 pg/μg CELL DNA and 2.0 pg/μg CELL DNA
same,INT[…] DNA RI,"[6]; 10 μM, listed as 2',3'-ddC",9 pg/μg CELL DNA and 7 pg/μg CELL DNA and 8 pg/μg CELL DNA and 5 pg/μg CELL DNA
same,HBV VIRION DNA DAY 0,"[6]; 10 μM, listed as 2',3'-ddC",63 pg/ml CULTURE MEDIUM and 66 pg/ml CULTURE MEDIUM and 78 pg/ml CULTURE MEDIUM and 68 pg/ml CULTURE MEDIUM
same,HBV VIRION DNA DAY 6,"[6]; 10 μM, listed as 2',3'-ddC",43 pg/ml CULTURE MEDIUM and 47 pg/ml CULTURE MEDIUM and 54 pg/ml CULTURE MEDIUM and 45 pg/ml CULTURE MEDIUM
same,HBV VIRION DNA DAY 9,"[6]; 10 μM, listed as 2',3'-ddC",7 pg/ml CULTURE MEDIUM and 5 pg/ml CULTURE MEDIUM and 6 pg/ml CULTURE MEDIUM and 8 pg/ml CULTURE MEDIUM
same,INT[…] DNA MONO.,"[6]; 50 μM, listed as 2',3'-ddC",1.2 pg/μg CELL DNA and 1.4 pg/μg CELL DNA and 1.8 pg/μg CELL DNA and 1.7 pg/μg CELL DNA
same,INT[…] DNA RI,"[6]; 50 μM, listed as 2',3'-ddC",2 pg/μg CELL DNA and 1 pg/μg CELL DNA
same,HBV VIRION DNA DAY 0,"[6]; 50 μM, listed as 2',3'-ddC",57 pg/ml CULTURE MEDIUM and 51 pg/ml CULTURE MEDIUM and 58 pg/ml CULTURE MEDIUM and 59 pg/ml CULTURE MEDIUM
same,HBV VIRION DNA DAY 6,"[6]; 50 μM, listed as 2',3'-ddC",26 pg/ml CULTURE MEDIUM and 28 pg/ml CULTURE MEDIUM and 30 pg/ml CULTURE MEDIUM and 20 pg/ml CULTURE MEDIUM
same,HBV VIRION DNA DAY 9,"[6]; 50 μM, zero = undetectable, cutoff 0.1 pg/ml",0 pg/ml CULTURE MEDIUM
same,effect on HBV replication (in words),"[6]; tested at 50 and 10 μM, compared with 2',3'-ddC",significant depressions of HBV DNA replication
same,NEUTRAL RED DYE UPTAKE,[7]; 10 μg/ml,99 ± 1 % OF CONTROL
same,NEUTRAL RED DYE UPTAKE,[7]; 30 μg/ml,100 ± 1 % OF CONTROL
same,NEUTRAL RED DYE UPTAKE,[7]; 100 μg/ml,89 ± 3 % OF CONTROL
same,NEUTRAL RED DYE UPTAKE,[7]; 300 μg/ml,17 ± 2 % OF CONTROL
same,"Toxicity, TD50",[8],> 100.00 ug/mL^-1
same,"Activity, MIC50",[9],0.74 µg/mL
same,depression of HBV RI,[10],90%

# Source: patent US5616606A, “Oligopeptide antiretroviral agents” (priority 1995, dated 1997)
